Measurements reported in patent EP4692072A1, “PHOTOCHROMIC COMPOUND, PROPARGYL ALCOHOL COMPOUND, CURABLE COMPOSITION, OPTICAL ARTICLE, LENS, AND SPECTACLES” (TOKUYAMA CORPORATION, priority 2023, dated 2024).

Columns and labels:
[1] = Accelerated deterioration (xenon weather meter X25, 120 hours) of binder sheet prepared by binder method; assay type: physicochemical; conditions: 0.25 mmol per 100 parts by mass resin, A120/A0×100 after 120 hours xenon weather meter
Protocol: (§1) • [1] Maximum Absorption Wavelength (λmax): The maximum absorption wavelength after color development, measured using a spectrophotometer (instantaneous multichannel photodetector MCPD3000) manufactured by Otsuka Electronics Co., Ltd. was used as an indicator for the color tone during the color development. • [2] 23°C Color Optical Density (A23): A difference between an absorbancy measured after light irradiation at 23°C for 300 seconds {ε(300)} and an absorbancy without light irradiation ε(0) at the maximum absorption wavelength was used as an indicator for the color optical density. […] 23°C color fading half-life [τ1/2 (sec.)]: A time required for the absorbancy of the sample at the maximum absorption wavelength to decrease to 1/2 of {ε(300)-ε(0)} when the light irradiation was terminated after the light irradiation at 23°C for 300 seconds, was used as an indicator for the color fading speed. The shorter this time, the higher the color fading speed. • [4] Residual rate (A120/A0×100): The obtained photochromic plastic lens was subjected to accelerated deterioration using a xenon weather meter X25 manufactured by Suga Test Instruments Co., Ltd. for 120 hours. Subsequently, the color optical density was evaluated before and after the test, then a color optical density before the test (A0) and a color optical density after the test (A120) were measured, and a ratio (A120/A0) was defined as a residual rate. The residual rate was used as an indicator for a color developing durability. The higher the residual rate, the higher the color developing durability. The results of Examples 26, 50, and Comparative Examples 1 to 8 are summarized in Table 1, and the results of Examples 27 to 49 are summarized in Tables 2 and 3.
(§2) A binder sheet was prepared using the following method. The binder sheet consisted of a first optical sheet, a first adhesive layer, a photochromic layer, a second adhesive layer, and a second optical sheet, which are laminated in this order. The first optical sheet and the second optical sheet were made of a polycarbonate sheet with a thickness of 400 µm.
(§3) A 2L four-necked flask equipped with agitation blades, a cooling tube, a thermometer, and a nitrogen gas introducing tube was charged with 315 parts by mass of polycarbonate diol having a number-average molecular weight of 1000, 100 parts by mass of isophorone diisocyanate, and 72 parts by mass of toluene, and the mixture was reacted under nitrogen atmosphere at 100°C for 7 hours to synthesize a urethane prepolymer having an isocyanate group on its terminal. After completion of the urethane prepolymer reaction, the reaction liquid was cooled to approximately 0°C, then dissolved in 205 parts by mass of t-butyl alcohol and 382 parts by mass of diethyl ketone, and then the liquid temperature was maintained at 0°C. Subsequently, into this reaction liquid, a mixture of 21.3 parts by mass of bis-(4-aminocyclohexyl)methane as a chain extender and 20 parts by mass of diethyl ketone was dripped over within 30 minutes, and the mixture was reacted at 0°C for 1 hour. Then, into the mixture, 8.1 parts by mass of 1,2,2,6,6-pentamethyl-4-aminopiperidine was dripped, and the mixture was reacted at 0°C for 1 hour to obtain a diethyl ketone solution of a terminal non-reactive urethaneurea resin.
(§4) To 100 parts by mass of the obtained terminal non-reactive urethaneurea resin solution, the photochromic compound in Example 1 (represented by formula (28) above), 6.3 parts by mass of 4,4'-methylenebis(cyclohexyl isocyanate) isomer mixture (polyisocyanate compound), furthermore 0.4 part by mass of ethylene bis(oxyethylene)bis[3-(5-tert-butyl-4-hydroxy-m-tolyl)propionate] as an antioxidant, and 0.06 part by mass of DOW CORNING TORAY L-7001 as a surfactant were added, and the mixture was stirred and mixed at room temperature to obtain a photochromic layer forming composition. […]

[2] = Photochromic properties of binder sheet (photochromic layer prepared by binder method); assay type: physicochemical; conditions: 0.25 mmol per 100 parts by mass resin; for A23: 23°C color optical density ε(300)-ε(0); for Maximum absorption wavelength: urethaneurea resin binder sheet, after color development
Protocol: as §1, §2, §3, §4

Residual rate [1] [%] | A23 [2] | Maximum absorption wavelength [2] [nm] | SMILES | other results
89 | 0.97 - | 502 | COc1ccc(C2(c3ccc(N(C)c4ccccc4)cc3)C=Cc3c4c(c5cc(-c6ccc(N7CCOCC7)cc6)c(OC)cc5c3O2)-c2ccccc2C4(C)C)cc1 (centres unmarked) [Example 1] | Residual rate ([1]; listed as Formula (37)): 90%; A23 ([2]; listed as Formula (37)): 1.06 -; Maximum absorption wavelength ([2]; listed as Formula (37)): 603 nm
91 | 1.35 - | 516 | CCCCN(c1ccccc1)c1ccc(C2(c3ccc(C)cc3)C=Cc3c4c(c5cc(N6CCOCC6)c(OC)cc5c3O2)-c2ccccc2C4(CC)CC)cc1 (centres unmarked) [Example 10] | A23 ([2]; listed as Formula (62)): 1.12 -; Maximum absorption wavelength ([2]; listed as Formula (62)): 594 nm
90 | 0.51 - | 479 | COCCCCC1(CCCCOC)c2cc(Sc3c(C)cccc3C)ccc2-c2c1c1c(c3cc(OC)ccc23)OC(c2ccc(OC)cc2)(c2ccc(N(C)c3ccc(OC)cc3)cc2)C=C1 (centres unmarked) [Example 11] | Residual rate ([1]; listed as Formula (65)): 89%; A23 ([2]; listed as Formula (65)): 0.97 -; Maximum absorption wavelength ([2]; listed as Formula (65)): 612 nm
91 | 0.88 - | 492 | CCCC1(CCC)c2ccccc2-c2c1c1c(c3cc(OC)c(-c4ccc(OC)cc4OC)cc23)OC(c2ccc(C)cc2)(c2ccc(N(C)c3ccccc3)cc2)C=C1 (centres unmarked) [Example 19] | A23 ([2]; listed as Formula (80)): 1.14 -; Maximum absorption wavelength ([2]; listed as Formula (80)): 604 nm
89 | 1.02 - | 506 | COCCC1(CCOC)c2ccccc2-c2c1c1c(c3cc(OC)c(-c4ccc(N(c5ccccc5)c5ccccc5)cc4)cc23)OC(c2ccc(Oc3ccccc3)cc2)(c2ccc(N(C)c3ccccc3)cc2)C=C1 (centres unmarked) [Example 23] | A23 ([2]; listed as Formula (85)): 1.06 -; Maximum absorption wavelength ([2]; listed as Formula (85)): 609 nm
87 | 0.88 - | 505 | CCN(c1ccc(OC)cc1)c1ccc(C2(c3ccc(OC)cc3)C=Cc3c4c(c5cc(-c6ccc(N7CCOCC7)cc6)c(OC)cc5c3O2)-c2ccccc2C4(C)C)cc1 (centres unmarked) [Example 25] | A23 ([2]; listed as Formula (88)): 0.97 -; Maximum absorption wavelength ([2]; listed as Formula (88)): 606 nm
87 | 0.75 - | 502 | CCCCOCCC1(CCOCCCC)c2ccccc2-c2c1c1c(c3cc(OC)c(NC(=O)c4ccccc4)cc23)OC(c2ccc(N(C)c3ccccc3)cc2)(c2ccc(OC)c(F)c2)C=C1 (centres unmarked) [Example 53] | Residual rate ([1]; listed as Formula (95)): 89%; A23 ([2]; listed as Formula (95)): 0.96 -; Maximum absorption wavelength ([2]; listed as Formula (95)): 607 nm
91 | 0.85 - | 493 | CCCC1(CCC)c2cc(OC(F)(F)F)ccc2-c2c1c1c(c3cc(OC)c(Sc4c(C)cccc4C)cc23)OC(c2ccc(N(C)c3ccccc3)cc2)(c2ccc(OC)c(OC)c2)C=C1 (centres unmarked) [Example 57] | Residual rate ([1]; listed as Formula (110)): 90%; A23 ([2]; listed as Formula (110)): 0.87 -; Maximum absorption wavelength ([2]; listed as Formula (110)): 618 nm

SMILES | Residual rate [1] [%] | A23 [2] | Maximum absorption wavelength [2] [nm] | other results
COc1ccc(N(C)c2ccc(C3(c4ccc(CCO[Si](C)(C)CC[Si](O[Si](C)(C)C)(O[Si](C)(C)C)O[Si](C)(C)C)cc4)C=Cc4c5c(c6cc(N(C)c7ccccc7)c(OC)cc6c4O3)-c3ccc(C(F)(F)F)cc3C53CCC(C)(C)CC3)cc2)cc1 (centres unmarked) [Example 60] | 88 | 0.84 - | 524 | Residual rate ([1]; listed as Formula (121)): 89%; A23 ([2]; listed as Formula (121)): 0.87 -; Maximum absorption wavelength ([2]; listed as Formula (121)): 582 nm
